According to patent US10517964B2, “Optical imaging probes, optical imaging systems, methods of optical imaging, and methods of using optical imaging probes” (priority 2011, dated 2019):

What was measured:
[1] = system: C6-fluc tumors; test: in vivo radioactive OI and microPET of mice bearing C6-fluc glioma
Experimental: [^18F]FDG has been widely used for imaging tumor metabolism^2,13,14, and Na^18F can accumulate in the bone^14. In this study, a group of mice (n=3) were implanted with firefly luciferase (fluc) transfected rat C6 glioma (C6-fluc). A day prior to the radioactive imaging, the mice were given with luciferin and bioluminescence OI was performed to verify the presence of tumor (FIG. 1.3a). Then [^18F]FDG was injected to the mice bearing C6-fluc glioma and imaged sequentially with IVIS Spectrum (FIG. 1.3b) and microPET (FIG. 1.3c). […] High imaging signals from bladder and brain were also observed by both modalities. But heart was hardly visible in the radioactive OI because it localizes deep inside of the mice body. After we sacrificed and open the thorax of the mice, the heart could be easily identified (FIG. 1.3d, yellow arrow). To further characterize the distribution of [^18F]FDG using radioactive OI, tumors and other normal organs and tissues were removed from the mice sacrificed and subjected to IVIS Spectrum imaging.
Quantitative analysis of both radioactive OI and microPET images was performed. The OI intensities in the tumor and the normal tissue as a function of time for [^18F]FDG was depicted in FIG. 1.3f, while the radioactivity accumulation in tumor and muscle over time was shown in FIG. 1.3g. […] Finally, regression analysis was performed for the tumor uptakes obtained from two imaging modalities, in order to further evaluate the quantitative analysis data obtained from radioactive OI. Good correlation was seen between the radioactive OI signal intensities and microPET images derived tumor uptakes (FIG. 1.3h, r^2 over 0.90 for the analyses). […]
Radioactive optical imaging: In vivo radioactive OI was also performed with an IVIS Spectrum system. […] Images were acquired and analyzed using Living Image 3.0 software (Caliper life sciences, Hopkinton, Mass.). Quantification of Radioactive OI images was corrected in accordance with radionuclides' respective physical decay properties. […]

[2] = system: primary bladder tumor; conditions: primary bladder tumor in humans; cited from earlier work
[3] = system: C6 glioma tumor; test: Cerenkov luminescence imaging with 6 mm fiber optic bundle in mice bearing C6 glioma; assay type: in vivo; conditions: n=4
From the text: Typical optical endoscopy imaging system includes an endoscope (usually made out of optical fibers and/or optical lenses such as grin/rod lenses), a white light source, and a CCD camera that is connected to the computer monitor. […] The subject “S” was placed […] the field of view (FOV) of the imaging system. The input end of the OF was placed close to the subject “S”. The output end of the “OF” faced the CCD camera such that the image transmitted by the output end was imaged on to the CCD camera using a relay lens system. The optical signal was normalized to photons per second per centimeter square per steradian (p/s/cm^2/sr). Identical settings were used for both in vitro and living mouse experiments.
^18F-FDG was produced by the Radiochemistry Facility at Stanford University using standard procedures. […] A CRC-15R PET dose calibrator (Capintec Inc., Ramseb, N.J.) was used for all radioactivity measurements. […]
To further characterize the distribution of ^18F-FDG, tumors and other organs were removed from the sacrificed mice (n=4) and subjected to fiber optic imaging as mentioned above. Inset figure on top right corner of each organ in FIG. 3.6(a) represents average Cerenkov radiance detected by a 6 mm fiber optic bundle. FIG. 3.6(b) represents biodistribution of ^18F-FDG in various tissues at one hour post injection in mice as measured using optical signals from radionuclides. […]

With “2-deoxy-2-[^18F]fluoro-D-glucose [[^18F]FDG]” the “tumor uptake over time” value ([1]; from 0.5-2 h) was “increased over time”, the tumor localization ([1]; radioactive OI and microPET, 0.5-2 h p.i.) was “preferentially localized and was retained in C6-fluc tumors” and the “ex vivo distribution in tumors and normal organs” value ([1]; radioactive OI of removed tissues, 2.1 h p.i.) was “High activity was mainly observed from the tumor and heart tissue samples”. The “standard uptake value (SUV)” value [2] was roughly 4.5, the “in vivo tracer uptake by fiber bundle signal” value ([3]; 900 μCi i.v., 90 minutes post-injection) was “Relatively high signals from the subcutaneous tumor and brain” and the “ex vivo tissue distribution by fiber bundle signal” value ([3]; one hour post injection) was “High signal was mainly observed from the tumor, heart, brain, and kidney tissue samples”.
